The values below come from patent publication US5985926A, “Method for inhibiting intracellular viral replication” (Cell Therapeutics, Inc., priority 1997, dated 1999).

One data set concerns U1 cells. As to the kind of experiment: Cytotoxicity in U1 cells. In kind it is cell-based, human. The text has this:
We studied the effect of CT-2576 on HIV expression in a chronically HIV-1 infected promonocytic U1 cell line (Folks et al., Science 238:800-802, 1987). […] TNF-α and other cytokines can induce HIV expression in U1 cells. U1 cells also express HIV constitutively when grown to a relatively high density. […] An inhibitor of viral reverse transcriptase is expected to only protect new cells from becoming infected but not to affect viral production from cells already infected with HIV. […] While TNF-α induces HIV expression through activation of NFκB, IL-6 and IL-1 also stimulates HIV expression through other pathways independent of NFκB activation in U1 cells.

Data set [1] has as its system CMV promoter in 293-EBNA cells. As to the kind of experiment: AP reporter gene expression from CMV promoter, 293-EBNA cells stably transfected with pCMV.AP. In kind it is cell-based, human cytomegalovirus; human cells. Here is the method:
An assay for measuring the anti-viral activity of the compounds involves testing the abilities of the compounds to inhibit gene expression directed by specific viral promoters in cell lines. Specifically, a plasmid construct, pCMV.AP, using the human cytomegalovirus (CMV) enhancer and promoter to direct the expression of the secreted human placental alkaline phosphatase reporter gene were transformed into a tumor cell line (e.g., 293-EBNA cells). The cultured cells were treated with various concentrations of the compounds. The expression of the alkaline phosphatase (AP) reporter gene in the individual cultures can then be measured by following the change in absorbance at A405 of the cell conditioned media in the presence of a suitable substrate (e.g., ortho-nitrophenol phosphate) (Berger et al., Gene 66:1,1988).
The construction of expression vectors for secreted placental alkaline phosphatase (sPAP) was performed by obtaining a mammalian episomal expression vector pBL3, derived from the plasmids pMEP4 and pCEP4 (Invitrogen Corp). Specifically, a 600 bp Spe I--Kpn I fragment spanning the CMV promoter from pCEP4 and a 9500 bp Xba I--Kpn I vector fragment from pMEP4 were isolated and ligated together to form pBL3. Full length sPAP cDNA was amplified by PCR using the plasmid pGEM4Z/SEAP (ATCC) as template with primers 5'-[…]-3' (SEQ ID NO. 1) and 5'-[…]-3' (SEQ ID NO. 2). The PCR product was then digested with Xba I and Sal I and inserted between the Nhe I site and the Xho I site within the multiple cloning region of pBL3. The resulting plasmid was designated as PCMV.AP.

In data set [2] the test system is 293-EBNA cells.
Data set [3] deals with 293-EBNA cells. As to the kind of experiment: Viability of 293-EBNA cells, Alamar Blue. In kind it is cell-based, human. How it is done:
Cell viability was measured by a colorimetric assay that uses Alamar Blue dye (Alamar, Inc.) to report cell proliferation, viability and cytotoxicity. This vital dye indicates cell activity by serving as substrate for mitochrondrial dehydrogenases for the formation of soluble dyes which can be quantitated by determining the difference in absorbance between A570 and A600 using a plate reader.
Cell viability was measured by a […] assay that uses Alamar Blue dye (Alamar, Inc.) to report cell proliferation, viability and cytotoxicity. This vital dye indicates cell activity by serving as substrate for mitochrondrial dehydrogenases for the formation of soluble dyes which can be quantitated by determining the difference in absorbance between A570 and A600 using a plate reader.
This example illustrates that CT2576 suppressed both tat-dependent and TNF-α induced HIV-LTR transcription with an IC50 of approximately 10 μM. Study of the effects of CT2576 on cell toxicity was performed using the Alamar Blue™ dye (Alamar Biosciences) according to the manufacturer's instructions. CT2576 was not toxic to 293-EBNA cells at concentrations up to 35 μM. To show CT2576 can inhibit HIV expression, CT2576 was tested for the ability to block HIV p24 antigen expression in chronically or acutely infected cells. Specifically, CT2576 inhibited the TNF-α and IL-6 induced and the constitutive expression of HIV in the chronically infected U1 cells and in peripheral blood lymphocytes (PBL) freshly infected with a HIV strain from a clinical isolate with an IC50 of approximately 1 μM. Pharmacological inhibition of synthesis of selected PL may therefore be a novel therapeutic approach to suppression of HIV replication.
(In general: The colour change of resazurin is a common sign of viable cells or microbes.)

Data set [4] concerns HIV-LTR promoter (tat transactivation) in 293-EBNA cells. Description: AP reporter gene expression from HIV-LTR promoter with tat expression vector, 293-EBNA cells. As to conditions: 293-EBNA cells, HIV promoter, in words. Format: cell-based, HIV; human cells. The text has this:
The plasmid construct, pHIV.AP, using the human immunodeficiency virus (HIV) long terminal repeat (LTR) promoter (derived from pU3R-III CAT, Sodroski et al., Science 227:171, 1985) to direct the expression of the sPAP reporter gene, was made by replacing the CMV promoter region from pCMV.AP with the HIV-LTR promoter. PHIV.AP was co-transfected with pSV2tat72, an expression vector for the 72 amino acids tat protein from HIV (Frankel and Pabo, Cell 55:1189-1193, 1988), into 293-EBNA cells (Invitrogen). The cultured cells were treated with various concentrations of the compounds. The expression of the alkaline phosphatase (AP) reporter gene in the individual cultures was measured by following change in absorbance at 405 nm of the cell conditioned media in the presence of a suitable substrate (e.g., ortho-nitrophenol phosphate) (Berger et al., Gene 66:1-10, 1988).
We set up a cell-based system with a cell line cotransfected with an expression plasmid using HIV-1-LTR promoter to direct synthesis of AP reporter gene and an expression plasmid to direct synthesis of the first 72 amino acids of tat protein. Plasmid pREP7 (Invitrogen) was converted to pREP7b by deleting 2,040 bp EBNA-1 coding region and by replacing the pBR322 origin of replication (ori) with the pBluescript KS (Stratagene) ori region. The cDNA for secreted placental alkaline phosphatase (AP) was generated by PCR with the primers (5'-[…]-3')(SEQ ID NO. 3) and (5'-[…]-3') (SEQ ID NO. 4)using the plasmid pGEM-4Z/PLAP489 (American Type Culture Collection) as the template. The 2,000 bp Xba I-Sal I fragment obtained was ligated into a Nhe I/Xho I vector derived from pREP7b to generate the plasmid pREP7b.AP. The 44 bp Xba I-Bgl II fragment from plasmid pMEP4 (Invitrogen)and the 36 bp BamH I-Kpn I fragment from pREP7 were ligated into the Xba I-Kpn I vector fragment from pREP7b.AP to generate the plasmid pMCS.AP. The 720 bp Xho I-Hind III fragment encoding the HIV-LTR promoter from the plasmid pU3R-III-CAT (Sodroski et al., Science 227:171-173, 1985) was ligated into the Xho I-Hind III vector fragment of PMCS.AP to generate the plasmid pHIV.AP. The CMV promoter was derived from the 600 bp Spe I-Asp718 I fragment from pCEP4 (Invitrogen). The 360 bp SV40 early promoter fragments were produced from pSV2tat72 (Frankel et al., Cell 55:1189-1193,1988) by PCR using the primers (5'-[…]-3') (SEQ ID NO. 5) and (5'-[…]-3') (SEQ ID NO. 6). The 480 bp phosphoglycerate kinase (PGK) promoter fragment was amplified from human placental genomic DNA (Promega, Madison, Wis.) based on published sequence (Pfeifer et al., Science 246:810-813, 1990) using the primers (5'-[…]-3') (SEQ ID NO. 7) and (5'-[…]-3') (SEQ ID NO. 8). The above fragments were ligated into the Xba I-Asp718 I vector fragment of pHIV.AP to generate pHIV2.AP, pHIV3.AP, pCMV.AP, pSVE.AP and PPGK.AP respectively. The tat-expression plasmid directed by HIV-LTR promoter, pHIV.tat, was generated by inserting the 400 bp EcoRV-HindIII fragment from pHIV.AP into the PvuII-HindIII vector fragment from pSV2tat72 (Frankel et al., Cell 55:1189-1193, 1988).
Transient transfections with various expression plasmids were performed on a human kidney embryonic cell line 293-EBNA (Invitrogen) using the cationic lipid DOTAP (Boehringer Mannheim). The cell culture media were changed 24 hr after transfection into a serum-free medium AIM V (Life Technologies) before addition of compounds or TNF-α (PeproTech) at the appropriate concentrations. AP activity measured by a colorimetric assay (Berger et al., Gene 66:1-10, 1988) was performed 19-24 hr later.

For a further data set, the system named is NFκB. Description: NFκB activation in 293tat cells, electrophoretic mobility shift assay. In kind it is cell-based, human. The conditions noted are these: CT2576 12 μM, TNF-α 40 ng/ml or IL-1β 1 ng/ml. Here is the method: (§1) Nuclear extracts (A) from 293tat cells were tested by EMSA for activation of NFκB. A radiolabeled 40-mer covering the NFκB sequences in the HIV promoter was used as a probe. Cells were incubated with CT2576 at 12 μM, human TNF-α at 40 ng/ml or IL-1β at 1 ng/ml, or pre-incubated for 30 min. with CT2576 and then stimulated with TNF-α or IL-1β for 18 hr prior to making extracts. RNA was extracted from 293tat cells (B) after treatment with CT2576 without or with TNF-α or IL-1β for 18 hr. Northern blots analysis were performed using probes derived from AP cDNA and G3PDH cDNA as a control for normalization of mRNA level. AP activity was determined in cell supernatants from the various samples.
(§2) NFκB binding activity in nuclear extracts (Dignam et al., Nucleic Acids Res. 11:1475-1489, 1983) of cells was measured by electrophoretic mobility-shift assay (EMSA) (Carthew et al., Cell 43:439-448, 1985) using 5'-labeled double-stranded synthetic DNA with two NF-κB motifs. Northern blot analysis was performed with total RNA run on 1% agarose/formaldehyde gel and probed with ^32 P-labeled cDNA of AP and glyceraldehyde-3-phosphate dehydrogenase (G3PDH).
(Mobility shift assays separate free from complexed probe on a gel.)

In another data set the test system is AP mRNA in 293tat cells. As to the kind of experiment: AP mRNA level in 293tat cells, Northern blot. Format: cell-based, human. The conditions noted are these: with TNF-α or IL-1β. How it is done:
as §1, §2

Take `CCCCCCCCNCC(O)CCCCCCCCCn1c(=O)ccn(C)c1=O` (stereo not drawn) [CT1827, 3-(11-octylamino-10-hydroxyundecyl)-1-methyluracil]: the “cytotoxicity in U1 cells at 25 μM” value in the data set on U1 cells (25 μM, FIG. 12 bottom panel, TNFα) was “some cytotoxicity”. For the same compound, the “cytotoxicity in U1 cells” value in the data set on U1 cells (FIG. 12 top panel, constitutive) is on record as “some cytotoxicity”. Moreover, the IC50 in data set [1] (Homo sapiens, 293-EBNA, FIG. 8, read-out: concentration inhibiting AP activity by 50% (CMV assay)) lay within 2 to 6 µM. In addition, in data set [1] (in words), the “inhibition of AP expression (CMV promoter)” value was “inhibit CMV promoter driven expression”. Also, the “effect on cell viability / cytotoxicity” value in the data set on 293-EBNA cells [2] is “minimal cytotoxic effects”. Besides, the “cytotoxic effect on 293-EBNA cells (Alamar Blue)” value with 293-EBNA cells [3] is reported as “no significant cytotoxic effect”. The “inhibition of AP expression (HIV-LTR promoter)” value in data set [4] is “inhibit HIV promoter driven expression”.

In the case of IL-1β: cytokine used as stimulant, the “activation of NFκB” value in the data set on NFκB is “NFκB was activated”. Further, the “AP transcript / mRNA steady-state level” value in the data set on AP mRNA in 293tat cells was “induction of AP transcripts”.
